According to ChEMBL document CHEMBL1132350, “Quantitative structure-activity relationship modeling of dopamine D(1) antagonists using comparative molecular field analysis, genetic algorithms-partial least-squares, and K nearest neighbor methods” (J Med Chem, 1999):

These compounds were tested against D(1A) dopamine receptor (Rattus norvegicus) (UniProt P18901). Details: Striatum.
Sequence of D(1A) dopamine receptor (Rattus norvegicus) (P18901 whole entry): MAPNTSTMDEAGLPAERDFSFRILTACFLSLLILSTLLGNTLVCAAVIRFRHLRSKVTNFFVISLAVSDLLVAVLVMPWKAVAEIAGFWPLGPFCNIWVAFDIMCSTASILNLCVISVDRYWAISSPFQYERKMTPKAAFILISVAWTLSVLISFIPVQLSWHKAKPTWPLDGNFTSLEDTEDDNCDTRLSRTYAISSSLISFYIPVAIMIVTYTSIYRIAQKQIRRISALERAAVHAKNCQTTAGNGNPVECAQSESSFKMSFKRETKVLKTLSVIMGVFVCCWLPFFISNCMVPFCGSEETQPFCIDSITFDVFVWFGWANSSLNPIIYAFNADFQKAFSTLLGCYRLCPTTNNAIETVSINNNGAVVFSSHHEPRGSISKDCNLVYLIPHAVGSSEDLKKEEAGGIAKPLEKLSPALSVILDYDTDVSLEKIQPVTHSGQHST
Description: Affinity towards dopamine receptor D1 in rat corpus striatum tissue.

Structure (SMILES) | -Log K0.5
CN1CCc2ccccc2C2c3cc(O)c(I)cc3CCC21 (stereo not given) | 5.96
CN1CCc2cc(Cl)c(O)cc2C1Cc1ccccc1 (stereo not given) | 7.24
Oc1cc2c(cc1Cl)CCN1CCc3ccccc3C21 (stereo not given) | 5.68
CN1CCc2cc(Br)c(O)cc2C1c1ccccc1 (stereo not given) | 7.97
Cc1ccc(C2c3cc(O)c(Cl)cc3CCN2C)cc1 (stereo not given) | 8.28
Cc1ccccc1C1c2cc(O)c(Cl)cc2CCN1C (stereo not given) | 8.43
CCCN(C)C1CCc2ccc(O)cc2C1c1ccccc1 (stereo not given) | 5.82
NC1CCc2ccc(O)cc2C1c1ccccc1 (stereo not given) | 5.53
CN1CCc2cc(Cl)c(O)cc2[C@@H](c2ccccc2)C1 | 9.4
CNCCCCCCN1CCc2cc(Cl)c(O)cc2C(c2ccccc2)C1 (stereo not given) | 6.86
CN(C)c1ccccc1CCN1CCc2cc(Cl)c(O)cc2C(c2ccccc2)C1 (stereo not given) | 7.43
CNC1CCc2ccc(O)cc2C1c1ccccc1 (stereo not given) | 5.46
Cc1cccc(C2c3cc(O)c(Cl)cc3CCN2C)c1 (stereo not given) | 8.38
CCCN1CCc2cc(Cl)c(O)cc2C1c1ccccc1 (stereo not given) | 7.05
CN1CCc2cc(Cl)c(O)cc2C1c1ccccc1Cl (stereo not given) | 8.43
CN(C)C1CCc2ccc(O)cc2C1c1ccccc1 (stereo not given) | 5.85
CN1CCc2cc(Cl)c(O)cc2C1c1ccccc1 (stereo not given) | 8.28
Cc1cccc(C)c1C1c2cc(O)c(Cl)cc2CCN1C (stereo not given) | 8.43
CN1CCc2cc(Cl)c(O)cc2C2c3ccccc3CCC21 (stereo not given) | 8.3
CCCNC1CCc2ccc(O)cc2C1c1ccccc1 (stereo not given) | 6.02
CC(C)c1ccccc1C1c2cc(O)c(Cl)cc2CCN1C (stereo not given) | 8.56
CN(C)CCCCCCN1CCc2cc(Cl)c(O)cc2C(c2ccccc2)C1 (stereo not given) | 6.94
CN1CCc2ccc(O)cc2C1c1ccccc1 (stereo not given) | 6.37
CN(C)c1ccccc1/C=C/N1CCc2cc(Cl)c(O)cc2C(c2ccccc2)C1 (stereo not given) | 7.54
Cc1cccc(C2c3cc(O)c(Cl)cc3CCN2C)c1C (stereo not given) | 8
